{"source": "patent US20220226265A1", "about": "“METHODS OF CONTROLLING MYOCARDIAL BLOOD FLOW” (UNIVERSITY OF LOUISVILLE RESEARCH FOUNDATION, INC., priority 2021, published 2022)", "tested_on": "WT and Kvβ2−/− mice", "test": "Arterial blood pressure (femoral artery catheter) during norepinephrine infusion", "assay_type": "in vivo, mouse", "settings": "norepinephrine infusion 5 μg/kg·min−1", "description": "In vivo measurements of cardiac function and myocardial blood flow: Mice were anesthetized with 3% isoflurane and supplemental O2, administered (1 L·min^−1) in a small induction chamber. After induction, the mice were placed on a controlled heating table in a supine position. Anesthesia was maintained throughout the procedure by delivery of 1-2% isoflurane and supplemental O2 (0.5 L·min^−1). The extremities were secured to the surgical table by tape and a lubricated probe was inserted rectally to monitor body temperature. The chest, neck, and hind limb hair were then removed using a depilatory agent, the skin was rinsed with warm water, and the neck area was disinfected with 70% ethanol/betadine and an incision (10-15 mm) was made at the right side of the neck. […]\nMeasurements of cardiac function, myocardial perfusion, and arterial blood pressure were performed at baseline, after administration of hexamethonium (5 mg·kg^−1, i.v.), and following successive doses of norepinephrine (0.5, 1.0, 2.5, and 5.0 μg·kg^−1·min^−1; 3 min duration each dose, followed by 3-5 min washout). […] Left ventricular volume at end diastole (LVEDV) and end systole (LVESV), as well left ventricular internal diameter at end diastole (LVID,d) and end systole (LVID,s) were measured at steady state after drug infusions. […]", "data": [{"compound": "NC[C@H](O)c1ccc(O)c(O)c1", "note": "[norepinephrine]", "values": [{"measurement": "time of infusion after which norepinephrine-induced elevation of pressure declined", "setting": "Kvβ2−/− mice", "value": "~40", "unit": "s"}, {"measurement": "increase in arterial blood pressure", "setting": "WT animals", "value": "sustained for the duration of drug administration"}]}]}
